{
  "source": "patent US20170218042A1",
  "about": "“METHODS OF ISOLATING T CELL RECEPTORS HAVING ANTIGENIC SPECIFICITY FOR A CANCER-SPECIFIC MUTATION” (The United State of America, as represented by the …, priority 2014, published 2017)",
  "tested_on": "3737-TIL",
  "experiment": "Co-culture of 3737-TIL with TMG-RNA-transfected autologous DCs; flow cytometry for activation markers 4-1BB and OX40",
  "format": "cell-based, human",
  "method": "APCs (DCs or B cells) were harvested, washed 1× with PBS, and then resuspended in Opti-MEM (Life Technologies) at 10-30×10^6 cells/ml. IVT RNA (4 μg or 8 μg) was aliquoted to the bottom of a 2 mm gap electroporation cuvette, and 50 μl or 100 μl of APCs were added directly to the cuvette. The final RNA concentration used in electroporations was thus 80 μg/ml. Electroporations were carried out using a BTX-830 square wave electroporator. DCs were electroporated with 150 V, 10 ms, and 1 pulse, and B cells were electroporated with 150 V, 20 ms, and 1 pulse. Transfection efficiencies using these settings were routinely between 70-90% as assessed with GFP RNA (data not shown). All steps were carried out at room temperature. Following electroporation, cells were immediately transferred to polypropylene tubes containing DC- or B-cell media supplemented with the appropriate cytokines. Transfected cells were incubated overnight (12-14 h) at 37° C., 5% CO2. Cells were washed 1× with PBS prior to use in co-culture assays.\nWhen DCs were used as APCs, approximately 3.5×10^4 to 7×10^4 DCs were used per well of a 96-well flat or round-bottom plate. When B cells were used as APCs, approximately 2×10^5 cells were used per well of a 96-well round-bottom plate. In ELISPOT assays, 1×10^3 to 1×10^4 effector T cells were used per well, and in flow cytometry assays, 1×10^5 effector T cells were used per well. T cells were typically thawed and rested in IL-2 containing 50/50 media (3000 IU/ml IL-2) for two days and then washed with PBS (3×) prior to co-culture assays. All co-cultures were performed in the absence of exogenously added cytokines. For all assays, plate-bound OKT3 (0.1 μg/ml or 1 μg/ml) was used as a positive control.\nExpression of the T-cell activation markers OX40 and 4-1BB was assessed by flow cytometry at approximately t=22-26 h post-stimulation. Briefly, cells were pelleted, washed with FACS buffer (1×PBS supplemented with 1% FBS and 2 mM EDTA), and then stained with the appropriate antibodies for approximately 30 min, at 4° C. in the dark. Cells were washed at least once with FACS buffer prior to acquisition on a BD FACSCanto II flow cytometer. All data were gated on live (PI negative), single cells.\nThe TMG constructs were then used as templates for the generation of in vitro transcribed (IVT) RNA. Each of these IVT TMG RNAs was then individually transfected into autologous APCs (DCs) followed by a co-culture with TIL to determine whether any of the processed and presented mutated antigens were recognized by TIL. It was observed that 3737-TIL were reactive to a mutated antigen present in TMG-1, but not TMG-2 or TMG-3 (FIG. 1A). […] Tables 4A and 4B show the percentage of 3737-TIL detected by flow cytometry as having the indicated phenotype following coculture with DCs cultured with the non-specific stimulator OKT3 or DCs transfected with green fluorescent protein (GFP) RNA, or the indicated tandem mini-gene (TMG) construct encoding the various mutations identified by whole-exomic sequencing. Mock-transfected cells were treated with transfection reagent only without addition of nucleic acid. Data were gated on live CD3+ cells.\n3737-TIL were co-cultured with DCs transfected with TMG-1 or TMG-1 encoding the wild-type (wt) ERBB2IP reversion, and flow cytometry was used to assess OX40 and Vβ22 expression on CD4+ T cells at 24 hours post-stimulation. Plate-bound OKT3 stimulation was used as a positive control.",
  "key": {"[1]": {"conditions": "3737-TIL CD4+ T cells, 24 hours post-stimulation"}, "[2]": {"conditions": "percentage of 3737-TIL after co-culture with transfected DCs or OKT3, gated on live CD3+ cells"}},
  "data": [
    {"substance": "OKT3: anti-CD3 antibody, non-specific stimulator, plate-bound positive control", "values": [
      {"measurement": "Vβ22+/OX40+", "setting": "[1]", "value": 44, "unit": "%"},
      {"measurement": "Vβ22+/OX40−", "setting": "[1]", "value": 6, "unit": "%"},
      {"measurement": "Vβ22−/OX40+", "setting": "[1]", "value": 31, "unit": "%"},
      {"measurement": "Vβ22−/OX40−", "setting": "[1]", "value": 19, "unit": "%"},
      {"measurement": "4-1BB+/CD4+", "setting": "[2]", "value": 32, "unit": "%"},
      {"measurement": "4-1BB+/CD4−", "setting": "[2]", "value": 41, "unit": "%"},
      {"measurement": "4-1BB−/CD4+", "setting": "[2]", "value": 23, "unit": "%"},
      {"measurement": "4-1BB−/CD4−", "setting": "[2]", "value": 4, "unit": "%"},
      {"measurement": "OX40+/CD4+", "setting": "[2]", "value": 45, "unit": "%"},
      {"measurement": "OX40+/CD4−", "setting": "[2]", "value": 6, "unit": "%"},
      {"measurement": "OX40−/CD4+", "setting": "[2]", "value": 11, "unit": "%"},
      {"measurement": "OX40−/CD4−", "setting": "[2]", "value": 38, "unit": "%"}
    ]}
  ]
}
